32 compounds from patent publication US20210277003A1, “OGA INHIBITOR COMPOUNDS” (Janssen Pharmaceutica NV, priority 2018, published 2021) can be followed below.

The target of experiment [1] is T1, recombinant human Meningioma Expressed Antigen 5 (MGEA5), also referred to as O-GlcNAcase (OGA) (Homo sapiens, UniProt O60502).
T1 construct: Full length OGA enzyme was purchased at OnGene (cat #TP322411); purchased OnGene (so in the source)
T1 sequence (O60502 1-916): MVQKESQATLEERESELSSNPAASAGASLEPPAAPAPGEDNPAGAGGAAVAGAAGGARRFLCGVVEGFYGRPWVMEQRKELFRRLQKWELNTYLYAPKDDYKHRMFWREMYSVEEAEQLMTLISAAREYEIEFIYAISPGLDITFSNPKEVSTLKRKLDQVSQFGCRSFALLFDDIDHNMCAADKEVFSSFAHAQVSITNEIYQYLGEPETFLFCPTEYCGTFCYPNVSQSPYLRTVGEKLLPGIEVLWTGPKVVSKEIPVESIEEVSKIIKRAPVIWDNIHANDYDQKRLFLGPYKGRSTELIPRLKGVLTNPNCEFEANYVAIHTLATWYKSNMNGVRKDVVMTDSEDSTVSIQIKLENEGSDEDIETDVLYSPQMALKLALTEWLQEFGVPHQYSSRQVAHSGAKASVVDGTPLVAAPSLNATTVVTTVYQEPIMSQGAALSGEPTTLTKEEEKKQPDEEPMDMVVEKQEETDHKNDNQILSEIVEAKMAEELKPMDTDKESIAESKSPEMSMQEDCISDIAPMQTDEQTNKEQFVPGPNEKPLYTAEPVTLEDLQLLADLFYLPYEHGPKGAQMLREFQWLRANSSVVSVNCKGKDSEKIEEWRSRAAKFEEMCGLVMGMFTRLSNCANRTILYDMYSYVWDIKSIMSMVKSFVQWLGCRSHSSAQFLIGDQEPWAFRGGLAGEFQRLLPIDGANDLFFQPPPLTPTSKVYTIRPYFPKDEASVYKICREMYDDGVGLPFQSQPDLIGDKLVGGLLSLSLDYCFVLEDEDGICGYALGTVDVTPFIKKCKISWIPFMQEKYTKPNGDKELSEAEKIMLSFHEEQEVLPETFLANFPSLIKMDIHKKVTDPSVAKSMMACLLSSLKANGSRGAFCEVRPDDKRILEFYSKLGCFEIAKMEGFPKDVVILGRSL
Nature of the experiment: OGA biochemical assay: inhibition of hydrolysis of fluorescein mono-ß-D-N-Acetyl-Glucosamine (FM-GlcNAc), fluorescence readout. Particulars: FM-GlcNAc substrate; for Emax: read-out: Enzymatic Emax (%); for IC50: read-out: Enzymatic hOGA, pIC50 (converted). The method in brief: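 Full-length recombinant human OGA (2 nM) was pre-incubated with compound for 60 min, then reacted with 100 uM FM-GlcNAc for 6 h at room temperature in 200 mM citrate/phosphate pH 7.2 with 0.005% Tween-20. Reactions were stopped with pH 11.0 carbonate and fluorescein read at 485/538 nm. IC50 and Hill coefficient came from curve fitting.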

Experiment [2] concerns OGA in HEK293 cells inducible for P301L mutant human Tau (isoform 2N4R). Briefly: OGA cellular assay: immunocytochemical detection of O-GlcNAcylated proteins (CTD110.6 antibody). Particulars: Homo sapiens, HEK293, 6 h, 6 hours incubation; for Emax: maximum = Thiamet G 200 uM; for EC50: read-out: Cellular hOGA, pEC50 (converted). Format: cell-based. The method in brief:
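Cells seeded 2 days ahead in low-glucose assay medium and exposed to compounds for 6 h at 0.2% DMSO, then PFA-fixed and immunostained. Signal is 488 nm intensity from imaging (9 fields/well), with Hoechst nuclei counts as a toxicity check. IC50 from non-linear regression, with 200 uM Thiamet G per plate as maximum inhibition.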

Each structure is given as a SMILES string.

A word on the Emax: it is the greatest response seen or fitted, relative to the assay's reference.

With `CCCCn1ccc2c(Nc3c(C)cncc3C(F)(F)F)nccc21` [Compound 86], in experiment [1], the Emax is 101% and the IC50 was 21.9 nM. Moreover, in experiment [2], the Emax came to 71% and the EC50 is 309 nM.

As to `CCCCn1ccc2c(Nc3c(C)cc4c(cnn4C)c3C)nccc21` [Compound 87], in experiment [1], the Emax turned out to be 102% and the IC50 was 4.79 nM. In addition, in experiment [2], the Emax was 87% and the EC50 was 12.9 nM.

In the case of `CCCCn1ccc2c(Nc3c(C)cc4c(c3C)CC(=O)N(C)C4)nccc21` [Compound 88], in experiment [1], the Emax stood at 103% and the IC50 is 4.07 nM. In addition, in experiment [2], the Emax amounted to 95% and the EC50 is 10.7 nM.

Consider `Cc1ccnc(C)c1Nc1nccc2c1ccn2CCC(C)(F)F` [Compound 90], for which, in experiment [1], the “Enzymatic hOGA; pIC50” value was found to be 7.31 and the Emax turned out to be 102%. For the same compound, in experiment [2], the Emax is 62% and the EC50 is 363 nM.

Regarding `FC1(F)CC(Cn2ccc3c(Nc4c(Cl)cccc4Cl)nccc32)C1` [Compound 91], in experiment [1], the “Enzymatic hOGA; pIC50” value turned out to be 8 and the Emax came to 102%. In addition, in experiment [2], the maximum response (Emax) was 73% and the EC50 is 79.4 nM.

Turning to `Cc1ccnc(C)c1Nc1nccc2c1ccn2CC1CC(F)(F)C1` [Compound 92], in experiment [1], the “Enzymatic hOGA; pIC50” value came to 7.38 and the Emax is 103%. In experiment [2], the Emax came out at 75% and the EC50 was 151 nM.

With `FC1(F)CC1CCn1ccc2c(Nc3c(Cl)cccc3Cl)nccc21` (centres unmarked) [Compound 95], in experiment [1], the “Enzymatic hOGA; pIC50” value came out at 7.61 and the Emax was determined as 104%. In experiment [2], the maximal response (Emax) was 63% and the EC50 is 525 nM.

As for `Cc1ccnc(C)c1Nc1nccc2c1ccn2CCC(F)F` [Compound 96], in experiment [1], the “Enzymatic hOGA; pIC50” value was determined as 7.1 and the Emax amounted to 102%. Further, in experiment [2], the Emax stood at 60% and the EC50 was 513 nM.

Take `FC(F)CCn1ccc2c(Nc3c(Cl)cccc3Cl)nccc21` [Compound 97]: in experiment [1], the “Enzymatic hOGA; pIC50” value was 7.9 and the Emax came out at 101%. For the same compound, in experiment [2], the Emax stood at 78% and the EC50 was 347 nM.

Take `CCCCn1ccc2c(Nc3c(C)cc(CF)cc3C)nccc21` [Compound 101]: in experiment [1], the Emax worked out at 103% and the IC50 was 3.24 nM. In experiment [2], the Emax is 83% and the EC50 was 57.5 nM.

Consider `Cc1cncc(Cl)c1Nc1nccc2c1ccn2CC1CC1` [Compound 110], for which, in experiment [1], the “Enzymatic hOGA; pIC50” value was determined as 7.54 and the Emax was 100%. For the same compound, in experiment [2], the Emax amounted to 48% and the EC50 was 363 nM.

Consider `CCC(F)(F)Cn1ccc2c(Nc3c(C)ccnc3C(C)C)nccc21` [Compound 112], for which, in experiment [1], the “Enzymatic hOGA; pIC50” value is recorded as 8.88 and the Emax was found to be 102%. Moreover, in experiment [2], the Emax amounted to 92.3% and the EC50 was around 1.82 nM.

With `CCC(F)(F)Cn1ccc2c(Nc3c(Cl)cccc3Cl)nccc21` [Compound 113], in experiment [1], the “Enzymatic hOGA; pIC50” value worked out at 8.9 and the Emax came to 106%. Besides, in experiment [2], the Emax is 93% and the EC50 is 7.94 nM.

On to `Cc1ccnc(OC(F)F)c1Nc1nccc2c1ccn2CC1CC(F)(F)C1` [Compound 114], for which, in experiment [1], the “Enzymatic hOGA; pIC50” value came to 7.03 and the Emax worked out at 100%. Besides, in experiment [2], the Emax was determined as 49.6% and the EC50 is 871 nM.

Turning to `Cc1ccnc(C(F)F)c1Nc1nccc2c1ccn2CC1CC(F)(F)C1` [Compound 115], in experiment [1], the “Enzymatic hOGA; pIC50” value was found to be 7.2 and the Emax amounted to 99.6%. In addition, in experiment [2], the Emax worked out at 52.3% and the EC50 was around 891 nM.

`Cc1cc(OC(F)F)cc(Cl)c1Nc1nccc2c1ccn2CC1CC(F)(F)C1` [Compound 116]: in experiment [1], the “Enzymatic hOGA; pIC50” value was 7.98 and the Emax is 104%. In experiment [2], the Emax was determined as 61.8% and the EC50 is 55 nM.

As for `Cc1ccnc(C(C)C)c1Nc1nccc2c1ccn2CC1CC(F)(F)C1` [Compound 117], in experiment [1], the “Enzymatic hOGA; pIC50” value is 8.26 and the Emax is 101%. In experiment [2], the Emax came to 89.6% and the EC50 was 44.7 nM.

On to `Cc1cc(C(F)(F)F)cc(C)c1Nc1nccc2c1ccn2CC1CC(F)(F)C1` [Compound 118], for which, in experiment [1], the “Enzymatic hOGA; pIC50” value turned out to be 7.89 and the Emax came to 102%. For the same compound, in experiment [2], the Emax was 71.7% and the EC50 was 74.1 nM.

On to `Cc1ccnc(OC(F)F)c1Nc1nccc2c1ccn2CC1CCO1` (centres unmarked) [Compound 119], for which, in experiment [1], the “Enzymatic hOGA; pIC50” value is 8 and the Emax turned out to be 105%. Besides, in experiment [2], the Emax amounted to 80.3% and the EC50 is 102 nM.

For `Clc1cccc(Cl)c1Nc1nccc2c1ccn2CCC1COC1` [Compound 122], in experiment [1], the “Enzymatic Emax (%)” value is 103.22% and the “Enzymatic hOGA; pIC50” value was found to be 7.72. Also, in experiment [2], the Emax was determined as 84.1% and the EC50 is 263 nM.

As for `CC[C@@H](O)Cn1ccc2c(Nc3c(C)cc(C#N)cc3Cl)nccc21` [Compound 123a], in experiment [1], the “Enzymatic hOGA; pIC50” value is recorded as 7.56 and the Emax stood at 102%. Also, in experiment [2], the Emax is 63.8% and the EC50 is 437 nM.

Consider `CC[C@H](O)Cn1ccc2c(Nc3c(C)cc(C#N)cc3Cl)nccc21` [Compound 123b], for which, in experiment [1], the “Enzymatic hOGA; pIC50” value is 7.53 and the Emax is 99.2%. Further, in experiment [2], the Emax was 71.1% and the EC50 was 100 nM.

In the case of `CC[C@@H](O)Cn1ccc2c(Nc3c(C)cc(C(F)(F)F)cc3C)nccc21` [Compound 124a], in experiment [1], the “Enzymatic hOGA; pIC50” value came to 7.88 and the Emax was determined as 103%. In experiment [2], the Emax turned out to be 74.7% and the EC50 was 21.9 nM.

As to `CC[C@H](O)Cn1ccc2c(Nc3c(C)cc(C(F)(F)F)cc3C)nccc21` [Compound 124b], in experiment [1], the “Enzymatic hOGA; pIC50” value was 8.04 and the Emax is 102%. In experiment [2], the Emax was 76.7% and the EC50 was 27.5 nM.

For `Cc1cncc(C(C)(C)O)c1Nc1nccc2c1ccn2CC1CCO1` (centres unmarked) [Compound 125], in experiment [1], the “Enzymatic hOGA; pIC50” value is given as 7.91 and the Emax is 103%. Also, in experiment [2], the Emax was determined as 74.8% and the EC50 was 43.7 nM.

Turning to `Cc1cc(F)cc(C)c1Nc1nccc2c1ccn2CC(C)(F)F` [Compound 126], in experiment [1], the “Enzymatic hOGA; pIC50” value is reported as 8.67 and the Emax stood at 100%. Moreover, in experiment [2], the Emax turned out to be 87.1% and the EC50 is 10.5 nM.

Consider `Cc1c(F)cnc(C(C)C)c1Nc1nccc2c1ccn2CC1CCO1` (centres unmarked) [Compound 127], for which, in experiment [1], the “Enzymatic hOGA; pIC50” value was found to be 8.75 and the Emax amounted to 103%. Besides, in experiment [2], the Emax worked out at 76.7% and the EC50 was 11.5 nM.

Consider `Cc1cc(C(F)(F)F)cc(Cl)c1Nc1nccc2c1ccn2CC(C)(F)F` [Compound 128], for which, in experiment [1], the “Enzymatic hOGA; pIC50” value is given as 8.58 and the Emax was determined as 101%. In addition, in experiment [2], the Emax was found to be 90.3% and the EC50 was 12.9 nM.

Turning to `Cc1cc(Cl)cc(C(F)(F)F)c1Nc1nccc2c1ccn2CC(C)(F)F` [Compound 129], in experiment [1], the “Enzymatic hOGA; pIC50” value is recorded as 8.59 and the Emax was 100%. Also, in experiment [2], the Emax is 104% and the EC50 was 7.41 nM.

Turning to `Cc1cc(C(F)(F)F)cc(C)c1Nc1nccc2c1ccn2CC(C)(F)F` [Compound 130], in experiment [1], the “Enzymatic hOGA; pIC50” value turned out to be 8.6 and the Emax stood at 102%. Further, in experiment [2], the maximum response (Emax) was determined as 93.7% and the EC50 is 3.16 nM.

In the case of `Cc1cc(C(F)(F)F)nc(C)c1Nc1nccc2c1ccn2CC(C)(F)F` [Compound 131], in experiment [1], the “Enzymatic hOGA; pIC50” value is listed as 8.36 and the Emax worked out at 102%. In experiment [2], the Emax was determined as 78.7% and the EC50 is 15.5 nM.

For the compound `Cc1ccnc(OC(F)F)c1Nc1nccc2c1ccn2CC(C)(F)F` [Compound 132], in experiment [1], the “Enzymatic hOGA; pIC50” value is listed as 7.94 and the Emax worked out at 99.7%. For the same compound, in experiment [2], the Emax is 82.2% and the EC50 is 110 nM.
